Key:
[1] = molecular target: T1, airway epithelial sodium currents (epithelial Na+ channel, ENaC) (Canis lupus familiaris, UniProt A0A8I3MKE6+A0A8I3Q679+Q95165); assay: In vitro measure of sodium channel blocking activity (short circuit current, airway epithelial monolayers in Ussing chambers); format: cell-based, human, dog, sheep or rodent; conditions: lumenal drug inhibition of ISC in airway epithelial monolayers, value ± spread, n in same cell
T1 sequence (A0A8I3Q679 1-649): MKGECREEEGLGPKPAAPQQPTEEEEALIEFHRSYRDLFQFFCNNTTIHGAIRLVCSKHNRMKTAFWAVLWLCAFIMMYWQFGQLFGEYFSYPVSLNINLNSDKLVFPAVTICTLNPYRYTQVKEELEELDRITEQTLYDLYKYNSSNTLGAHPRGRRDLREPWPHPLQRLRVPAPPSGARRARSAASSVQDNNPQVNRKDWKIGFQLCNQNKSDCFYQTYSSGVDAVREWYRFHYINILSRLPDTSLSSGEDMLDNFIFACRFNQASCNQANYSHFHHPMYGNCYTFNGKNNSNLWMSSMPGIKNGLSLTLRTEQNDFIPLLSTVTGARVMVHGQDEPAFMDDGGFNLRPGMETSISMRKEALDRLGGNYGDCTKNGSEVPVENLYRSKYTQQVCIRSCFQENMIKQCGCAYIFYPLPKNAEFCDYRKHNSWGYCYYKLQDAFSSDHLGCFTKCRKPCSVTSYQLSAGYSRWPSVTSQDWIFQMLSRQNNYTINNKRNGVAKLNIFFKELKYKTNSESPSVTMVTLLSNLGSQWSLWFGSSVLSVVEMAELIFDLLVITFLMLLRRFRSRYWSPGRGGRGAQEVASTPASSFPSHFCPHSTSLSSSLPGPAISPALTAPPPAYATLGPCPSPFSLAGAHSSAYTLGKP
T1 sequence (Q95165 1-641): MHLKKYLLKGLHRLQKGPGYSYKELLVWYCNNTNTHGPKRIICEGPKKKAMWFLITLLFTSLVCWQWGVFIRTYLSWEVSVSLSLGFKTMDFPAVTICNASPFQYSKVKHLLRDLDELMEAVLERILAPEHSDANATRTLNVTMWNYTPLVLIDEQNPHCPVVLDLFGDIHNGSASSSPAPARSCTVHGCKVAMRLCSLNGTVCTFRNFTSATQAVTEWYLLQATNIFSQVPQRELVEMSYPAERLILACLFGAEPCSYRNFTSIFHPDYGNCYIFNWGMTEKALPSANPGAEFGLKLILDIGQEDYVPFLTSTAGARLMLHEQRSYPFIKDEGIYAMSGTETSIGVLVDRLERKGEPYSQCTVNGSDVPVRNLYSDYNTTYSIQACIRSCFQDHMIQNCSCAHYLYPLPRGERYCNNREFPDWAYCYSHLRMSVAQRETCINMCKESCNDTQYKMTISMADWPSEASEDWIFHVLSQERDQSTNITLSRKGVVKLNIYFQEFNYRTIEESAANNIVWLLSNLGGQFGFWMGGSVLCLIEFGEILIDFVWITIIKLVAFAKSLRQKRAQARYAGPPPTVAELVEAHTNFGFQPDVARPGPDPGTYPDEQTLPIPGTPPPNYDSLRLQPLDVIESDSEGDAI
T1 sequence (A0A8I3MKE6 1-646): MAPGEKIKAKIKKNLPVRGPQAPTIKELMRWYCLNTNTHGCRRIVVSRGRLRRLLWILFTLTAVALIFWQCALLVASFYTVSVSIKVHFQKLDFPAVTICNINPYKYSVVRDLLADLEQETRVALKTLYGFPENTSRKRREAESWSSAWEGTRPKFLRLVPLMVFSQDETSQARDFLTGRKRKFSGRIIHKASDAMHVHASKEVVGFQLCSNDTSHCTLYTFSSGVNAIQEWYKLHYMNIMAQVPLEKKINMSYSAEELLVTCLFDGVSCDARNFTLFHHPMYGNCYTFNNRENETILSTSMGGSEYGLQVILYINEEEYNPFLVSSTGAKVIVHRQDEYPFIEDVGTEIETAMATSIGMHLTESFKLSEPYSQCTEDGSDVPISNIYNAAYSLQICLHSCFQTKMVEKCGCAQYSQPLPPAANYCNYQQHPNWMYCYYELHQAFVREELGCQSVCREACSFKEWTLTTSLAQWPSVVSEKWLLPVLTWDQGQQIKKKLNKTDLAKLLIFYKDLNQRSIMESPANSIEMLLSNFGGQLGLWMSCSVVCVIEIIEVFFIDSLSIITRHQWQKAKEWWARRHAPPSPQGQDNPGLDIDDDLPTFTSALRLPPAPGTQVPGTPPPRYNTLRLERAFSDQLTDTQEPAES
Description: In Vitro Measure of Sodium Channel Blocking Activity and Reversibility
One assay used to assess mechanism of action and/or potency of the compounds of the present invention involves the determination of lumenal drug inhibition of airway epithelial sodium currents measured under short circuit current (ISC) using airway epithelial monolayers mounted in Ussing chambers. Cells obtained from freshly excised human, dog, sheep or rodent airways are seeded onto porous 0.4 micron Snapwell™ Inserts (CoStar), cultured at air-liquid interface (ALI) conditions in hormonally defined media, and assayed for sodium transport activity (ISC) while bathed in Krebs Bicarbonate Ringer (KBR) in Using chambers. All test drug additions are to the lumenal bath with half-log dose addition protocols (from 1×10^−11 M to 3×10^−5M), and the cumulative change in ISC (inhibition) recorded. All drugs are prepared in dimethyl sulfoxide as stock solutions at a concentration of 1×10^−2 M and stored at −20° C. Eight preparations are typically run in parallel; two preparations per run incorporate amiloride and/or benzamil as positive controls. After the maximal concentration (5×10^−5 M) is administered, the lumenal bath is exchanged three times with fresh drug-free KBR solution, and the resultant ISC measured after each wash for approximately 5 minutes in duration. Reversibility is defined as the percent return to the baseline value for sodium current after the third wash. All data from the voltage clamps are collected via a computer interface and analyzed off-line.
Dose-effect relationships for all compounds are considered and analyzed by the Prism 3.0 program. IC50 values, maximal effective concentrations, and reversibility are calculated and compared to amiloride and benzamil as positive controls.

melting point | Compound | EC50 [1]
 | N=C(NCCCCc1ccc(OCC(O)COCC(O)CO)cc1)NC(=O)c1nc(Cl)c(N)nc1N (centres unmarked) [compound 15143] | 7 ± 3 nM
114 to 121.16 °C | N=C(NCCCCc1ccc(OCC(=O)N(CCO)CCO)cc1)NC(=O)c1nc(Cl)c(N)nc1N | 
 | CC(C)[C@H](NS(=O)(=O)c1ccc(CCCCNC(=N)NC(=O)c2nc(Cl)c(N)nc2N)cc1)C(N)=O [compound 19008] | 9 ± 1 nM
 | N=C(NCCCCc1ccc(OCCCc2nnn[nH]2)cc1)NC(=O)c1nc(Cl)c(N)nc1N [compound 17926] | 25 ± 9 nM
 | N=C(NCCCCc1ccc(OCC(=O)Nc2ccccc2)cc1)NC(=O)c1nc(Cl)c(N)nc1N [compound 17482] | 16 ± 4 nM
 | CN(C)C(=S)Oc1ccc(CCCCNC(=N)NC(=O)c2nc(Cl)c(N)nc2N)cc1 [compound 17846] | 11 ± 6 nM
 | N=C(NCCCCc1ccc(OCC(=O)Nc2ncc[nH]2)cc1)NC(=O)c1nc(Cl)c(N)nc1N [compound 16437] | 13 ± 7 nM
 | N=C(NCCCCc1ccc(OCCCc2ncc[nH]2)cc1)NC(=O)c1nc(Cl)c(N)nc1N [compound 23022] | 12 ± 3 nM
 | N=C(NCCCCc1ccc(OCC(=O)NCC(N)=O)cc1)NC(=O)c1nc(Cl)c(N)nc1N [compound 16314] | 13 ± 2 nM
 | CN(C)C(=O)COc1ccc(CCCCNC(=N)NC(=O)c2nc(Cl)c(N)nc2N)cc1 [compound 16313] | 15 ± 4 nM
 | N#CCOc1ccc(CCCCNC(=N)NC(=O)c2nc(Cl)c(N)nc2N)cc1 [compound 16208] | 11 ± 4 nM
